Laboratory results taken from publication PMC12337082 (Journal of Biochemical and Molecular Toxicology, 2025).
“Also recorded” adds a separate entry of the source. Like-named read-outs stand apart in the source and are kept apart here.

Tests used:
MCF‐7 [1] = details: cited from earlier work
MDA‐MB‐231 [2] = details: MDA‐MB‐231, 24 h, cited from earlier work
PGE2 release [3] = assay: PGE2 ELISA, MCF‐7; assay type: cell-based, human; details: MCF‐7, 3 µM
Experimental: (§1) PGE2 ELISA kit (ENZO, ADI‐900‐001) was used to determine prostaglandin synthesis levels. MCF‐7 and MDA‐MB‐231 breast cancer cells were cultured at a density of 1 × 10^6 cells/well in a 6‐well culture dish. […] Following 24 h of incubation, the medium was replaced with a fresh one, 10 µM arachidonic acid was added, and it was further incubated for 1 h. The PGE2 levels were determined according to the kit protocol.

PGE2 release [4] = assay: PGE2 ELISA, MDA‐MB‐231; assay type: cell-based, human; details: MDA‐MB‐231, 3 µM
Experimental: as §1

[5] = tested on: multiple myeloma cell lines; set-up: method as in Yasui et al. (2007) [63]; details: 48 h, ref Yasui et al. (2007) [63]; cited from earlier work
MDA‐MB‐231 [6] = assay: Mitochondrial membrane potential (JC‐1) apoptosis assay, MDA‐MB‐231; assay type: cell-based, human; details: MDA‐MB‐231, 50 μM, 24 h, MMP assay
Experimental: (§2) Apoptosis was also investigated by evaluating mitochondrial membrane potential changes (MMP assay). MCF‐7, MDA‐MB‐231, and L‐929 cells were stained with JC‐1 dye according to the manufacturer's protocols (JC‐1 MMP Assay Kit, KA1324, Abnova). The apoptotic to healthy cell ratio was calculated using absorbances collected from two different fluorescence channels (535/595 for healthy cells, 485/535 for apoptotic cells) (Synergy H1, Biotech Instruments Inc., Vermont, USA).

COX‐2 [7] = assay: Western blot COX‐2 protein expression, MDA‐MB‐231; assay type: cell-based, human; details: 24 h
Experimental: (§3) Total protein levels were measured using the Take3 Multi‐Volume Plate (Synergy H1, BioTek Instruments Inc., Vermont, USA). In accordance with the classical protocol, transferred proteins were exposed to the following primary antibodies: Beta‐actin (NB600‐501, Novus Biologicals), Bax (SPM336, NBP2‐32809), Bcl‐2 (100/D5, NBP2‐15200), cleaved PARP (194C1439, NBP2‐27335), and COX‐2 (D‐12:sc‐166475, Santa Cruz). The bands were visualized with chemiluminescent HRP substrates (Western Bright ECL‐Advansta, K‐12045‐050). Using a chemiluminescence imaging system (Celvin S, BioStep), the relative quantification was done based on the level of β‐actin proteins.

L‐929 = assay: Mitochondrial membrane potential (JC‐1) apoptosis assay, L‐929; assay type: cell-based, mouse; details: L‐929, 50 μM, 24 h, MMP assay
Experimental: as §2

COX‐2 [8] = assay: Western blot COX‐2 protein expression, MCF‐7; assay type: cell-based, human; details: 24 h
Experimental: as §3

[9] = tested on: L‐929 mouse fibroblast cell line; assay: MTT cell viability assay, L‐929 control fibroblasts; assay type: cell-based; details: Mus musculus
Excerpt: (§4) MCF‐7, MDA‐MB‐231, and L‐929 mouse fibroblast cell lines were obtained from the American Type Culture Collection (ATCC, Manassas, Virginia, USA). MCF‐7 is a hormone‐responsive, differentiated mammary epithelium cell line with an ER+, PR+, and HER2‐ pattern (ATCC, HTB‐22). MDA‐MB‐231 is a triple‐negative differentiated mammary epithelium cell line (ATCC, HTB‐26). The L‐929 mouse fibroblast cell line is derived from the normal subcutaneous connective tissue of a mouse and is commonly used in cytotoxicity assays (ATCC, CCL‐1). All cell lines were cultured in DMEM medium (Dulbecco's Modified Eagle Medium, Gibco), supplemented with 10% fetal bovine serum (Gibco), 1% glutamine, and penicillin/streptomycin (Gibco) in a humidified atmosphere containing 5% CO2 at 37°C. Cell viability was tested using Trypan blue staining.
(§5) The MTT [3‐(4,5‐dimethylthiazol‐2‐yl)−2,5‐diphenyltetrazolium bromide] assay is a colorimetric assay for determining cell metabolic activity. In the MTT assay, the yellow dye MTT that dissolves in water is changed by mitochondrial reductase into a purple formazan that is non‐soluble. The water‐insoluble formazan produced is solubilized in a solubilization buffer, and absorbances are detected.
(§6) In 96‐well plates, the cells were cultivated at a density of 5 × 10^3 cells/well using 100 µL medium. […] 10 μL of the MTT labeling reagent (final concentration 0.5 mg/mL) were added to each well at the end of the incubation periods, and the wells were incubated for an additional 4 h. Next, each well received 100 μL of solubilization buffer (10% SDS in 0.01 M HCl) and was overnight incubated, and the absorbance of formazan products was evaluated at 550 nm using a multi‐mode microplate reader (Synergy H1, Biotech Instruments Inc., Vermont, USA). The results were normalized relative to the absorbances of calculated percent concentrations of DMSO. All tests involved three replicates with three independent experiments.
(§7) All statistical evaluations, including t‐tests and IC50 values, were calculated using the GraphPad Prism software tool (v6.0, GraphPad Software Inc., San Diego, USA). Statistical significance was defined as p ˂ 0.05 (*p < 0.05, **p < 0.01, ***p < 0.001, ****p < 0.0001).

MDA‐MB‐231 [10] = assay: Annexin V/PI staining, Tali image‐based cytometry, MDA‐MB‐231; assay type: cell-based, human; details: MDA‐MB‐231, 24 h
Excerpt: (§8) To assess apoptosis and cell death, cells were stained with Annexin V‐PI dyes (Tali Apoptosis Kit‐Annexin V Alexa Fluor 488 and PI‐, Molecular Probes A10788, Invitrogen) and quantified using Tali Image‐Based Cytometer (Invitrogen) and fluorescence microscopy (Olympus CKX41 Inverted Phase Contrast Fluorescence Microscope furbished with reflected fluorescence illuminator CKX‐RFA).
(§9) To assess whether our compounds produce their cytotoxic effects through induction of apoptosis, apoptosis was investigated using Annexin V/PI labeling and MMP methods (Figures 4A−C). In addition, by utilizing TALI image‐based cytometry and fluorescent microscopy, the number of cells was analyzed for different concentrations of agents (Table 4).

Bax/Bcl‐2 ratio = assay: Western blot Bax/Bcl‐2 ratio in breast cancer cell lines; assay type: cell-based, human; details: 50 and 75 µM, 24 h
Experimental: as §3

MCF‐7 [11] = assay: Annexin V/PI staining, Tali image‐based cytometry, MCF‐7; assay type: cell-based, human; details: MCF‐7, 24 h
Excerpt: as §8, §9

MCF‐7 [12] = assay: MTT cell viability assay, MCF‐7; assay type: cell-based, human; details: for IC50: Homo sapiens, MCF7, MTT
Excerpt: as §4, §5, §6, §7

MDA‐MB‐231 [13] = assay: MTT cell viability assay, MDA‐MB‐231; assay type: cell-based, human; details: for IC50: Homo sapiens, MTT
Excerpt: as §4, §5, §6, §7

c‐PARP = assay: Western blot cleaved PARP, MDA‐MB‐231; assay type: cell-based, human; details: MDA‐MB‐231, 24 h, all concentrations (50 and 75 µM); not measurable in MCF‐7
Experimental: as §3

MCF‐7 [14] = assay: Mitochondrial membrane potential (JC‐1) apoptosis assay, MCF‐7; assay type: cell-based, human; details: MCF‐7, 50 μM, 24 h, MMP assay
Experimental: as §2

[15] = tested on: MCF‐7, MDA‐MB‐231, and L‐929; assay: MTT cell viability assay, statements over all cell lines; assay type: cell-based; details: 25 µM; MCF‐7, MDA‐MB‐231 and L‐929; not dose‐dependent
Excerpt: as §4, §5, §6
All statistical evaluations, including t‐tests and IC50 values, were calculated using the GraphPad Prism software tool (v6.0, GraphPad Software Inc., San Diego, USA). […]

[16] = MCF‐7 in comparison to L‐929, 24 h
[17] = MCF‐7 in comparison to L‐929, 48 h
[18] = MDA-MB-231, 24 h, MDA‐MB‐231, 24 h
[19] = MDA-MB-231, 48 h, MDA‐MB‐231, 48 h
[20] = MDA‐MB‐231 in comparison to L‐929, 24 h
[21] = MDA‐MB‐231 in comparison to L‐929, 48 h

Compound: O=c1[nH]cc(F)c(=O)[nH]1 [5‐FU]
- IC50 (MCF‐7 [1]; MCF‐7, 24 h, ref Badawi et al. (2023) [68]): 17 µM
- IC50 (MDA‐MB‐231 [2]; ref Badawi et al. (2023) [68]): 11.7 µM

Compound: CS(=O)(=O)c1ccc(-c2cc(Br)sc2-c2ccc(F)cc2)cc1 [DUP‐697]
- Reduction of PGE2 release (PGE2 release [3]): 46%
- Reduction of PGE2 release (PGE2 release [4]): 88%

Compound: CCc1cccc2c3c([nH]c12)[C@@](CC)(CC(=O)O)OCC3 [Etodolac R‐enantiomer SDX‐101]
- IC50 [5]: 490 µM

Compound: CCc1cc(Br)cc2c3c([nH]c12)C(CC)(CCO)OCC3 (centres unmarked) [Etodolac analog SDX‐308]
- IC50 [5]: 23.8 µM

Compound: CC(C)Cc1ccc(C(C)C(=O)O)cc1 (centres unmarked) [Ibuprofen]
- IC50 (MCF‐7 [1]; MCF‐7, 48 h, ref Daniel Pedro‐Hernández et al. (2020) [67]): 92.1 µM

Compound: O=C(O)C(=O)O.[NH-][C@@H]1CCCC[C@H]1[NH-].[Pt+2] [Oxaliplatin]
- IC50 (MCF‐7 [1]; MCF‐7, 24 h, ref Raymond et al. (1997) [66]): 7.4 µM
- IC50 (MDA‐MB‐231 [2]; ref Raymond et al. (1997) [66]): 17.9 µM

Compound: CCc1cccc2c3c([nH]c12)C(CC)(CC(=O)NN1C(=O)CSC1c1c(F)cccc1F)OCC3 (centres unmarked) [SGK 217, 3‐(2‐(1,8‐Diethyl‐1,3,4,9‐tetrahydropyrano[3,4‐b]indole‐1‐yl)acetylhydrazono)‐2‐(2,6‐difluorophenyl)‐4‐thiazolidinone]
- Increase in apoptosis compared to the control group (MDA‐MB‐231 [6]): 85%
- Decrease in COX‐2 protein expression compared to the control group (COX‐2 [7]; MDA‐MB‐231, 50 µM): 61%
- Decrease in COX‐2 protein expression compared to the control group (COX‐2 [7]; MDA‐MB‐231, 75 µM): 84%
- Increase in apoptosis compared to the control group (L‐929): 3%
- Decrease in COX‐2 protein expression compared to the control group (COX‐2 [8]; MCF‐7, 50 µM): 56%
- Decrease in COX‐2 protein expression compared to the control group (COX‐2 [8]; MCF‐7, 75 µM): 85%
- IC50 ([9]; L929, 24 h, L‐929, 24 h): 72 ± 3.2 µM
- IC50 ([9]; L929, 48 h, L‐929, 48 h): 29.6 ± 0.94 µM
- IC50 ([9]; L929, 72 h, L‐929, 72 h): 26.3 ± 0.112 µM
- Apoptotic cells (MDA‐MB‐231 [10]; 25 µM): 0%
- Dead cells (MDA‐MB‐231 [10]; 25 µM): 7%
- Live cells (MDA‐MB‐231 [10]; 25 µM): 93%
- Apoptotic cells (MDA‐MB‐231 [10]; 50 µM): 23%
- Dead cells (MDA‐MB‐231 [10]; 50 µM): 11%
- Live cells (MDA‐MB‐231 [10]; 50 µM): 66%
- Bax/Bcl‐2 ratio change (Bax/Bcl‐2 ratio): significantly rise
- Apoptotic cells (MCF‐7 [11]; 25 µM): 6%
- Dead cells (MCF‐7 [11]; 25 µM): 7%
- Live cells (MCF‐7 [11]; 25 µM): 87%
- Apoptotic cells (MCF‐7 [11]; 50 µM): 16%
- Dead cells (MCF‐7 [11]; 50 µM): 10%
- Live cells (MCF‐7 [11]; 50 µM): 74%
- Apoptotic cells (MCF‐7 [11]; 75 µM): 18%
- Dead cells (MCF‐7 [11]; 75 µM): 27%
- Live cells (MCF‐7 [11]; 75 µM): 55%
- IC50 (MCF‐7 [12]; MCF‐7, 24 h): 18 ± 3.4 µM
- IC50 (MCF‐7 [12]; MCF‐7, 48 h): 12.2 ± 2 µM
- IC50 (MCF‐7 [12]; MCF‐7, 72 h): 26.7 ± 4.8 µM
- Selectivity index (SI) (MCF‐7 [12]; [16]): 4.0
- Selectivity index (SI) (MCF‐7 [12]; [17]): 2.4
- Selectivity index (SI) (MCF‐7 [12]; MCF‐7 in comparison to L‐929, 72 h): 1
- IC50 (MDA‐MB‐231 [13]; [18]): 36 ± 1.6 µM
- IC50 (MDA‐MB‐231 [13]; [19]): 13.8 ± 1.6 µM
- IC50 (MDA‐MB‐231 [13]; MDA-MB-231, 72 h, MDA‐MB‐231, 72 h): 14.6 ± 1.4 µM
- Selectivity index (SI) (MDA‐MB‐231 [13]; [20]): 2.0
- Selectivity index (SI) (MDA‐MB‐231 [13]; [21]): 2.1
- Selectivity index (SI) (MDA‐MB‐231 [13]; MDA‐MB‐231 in comparison to L‐929, 72 h): 1.8
- c‐PARP (89‐kD fragment) protein change (c‐PARP): consistent activation; also recorded: significant increase
- Increase in apoptosis compared to the control group (MCF‐7 [14]): 51%

Compound: CCc1cccc2c3c([nH]c12)C(CC)(Cc1n[nH]c(=S)n1Cc1ccccc1)OCC3 (centres unmarked) [SGK 242, 5‐[(1,8‐Diethyl‐1,3,4,9‐tetrahydropyrano[3,4‐b]indole‐1‐yl)methyl]‐4‐benzyl‐2,4‐dihydro‐3H‐1,2,4‐triazole‐3‐thione]
- Toxicity on all cell lines [15]: severe toxicity
- IC50 ([9]; L929, 24 h, L‐929, 24 h): 38 ± 8.05 µM
- IC50 ([9]; L929, 48 h, L‐929, 48 h): 44.2 ± 2.45 µM
- IC50 (MCF‐7 [12]; MCF‐7, 24 h): 22 ± 0.1 µM
- IC50 (MCF‐7 [12]; MCF‐7, 48 h): 12 ± 3.3 µM
- Selectivity index (SI) (MCF‐7 [12]; [16]): 1.7
- Selectivity index (SI) (MCF‐7 [12]; [17]): 3.6
- IC50 (MDA‐MB‐231 [13]; [18]): 31 ± 2.5 µM
- IC50 (MDA‐MB‐231 [13]; [19]): 24 ± 1.2 µM
- Selectivity index (SI) (MDA‐MB‐231 [13]; [20]): 1.2
- Selectivity index (SI) (MDA‐MB‐231 [13]; [21]): 1.8
